Laboratory results: patent US6737383B1, “Herbicidal oxadiazolidines” (priority 1999, dated 2004)

How the values were obtained:
[1] = system: wild mustard; test: Test E wild mustard; format: in vivo, Sinapis arvensis; conditions: Preemergence
[2] = system: ivyleaf speedwell; test: Test E postemergence ivyleaf speedwell; format: in vivo, Veronica hederaefolia; conditions: for Plant response rating, Veronica hedera: 0 to 100 scale
Protocol: (§1) Compounds evaluated in this test were formulated in a non-phytotoxic solvent mixture which included a surfactant and applied to plants that were in the 1- to 4-leaf stage (postemergence application). A mixture of sandy loam soil and greenhouse potting mix in a 60:40 ratio was used for the postemergence test.
(§2) Plantings of these crops and weed species were adjusted to produce plants of appropriate size for the postemergence test. All plant species were grown using normal greenhouse practices. Crop and weed species include annual bluegrass (Poa annua), blackgrass (Alopecurus myosuroides), black nightshade (Solanum nigra), chickweed (Stellaria media), common poppy (Papaver rhoeas), deadnettle (Lamium amplexicaule), downy brome (Bromus tectorum), field violet (Viola arvensis), galium (Galium aparine), green foxtail (Setaria viridis), Italian ryegrass (Lolium multiflorum), jointed goatgrass (Aegilops cylindrica), kochia (Kochia scoparia), lambsquarters (Chenopodium album), littleseed canarygrass (Phalaris minor), rape (Brassica napus), redroot pigweed (Amaranthus retroflexus), Russian thistle (Salsola kali), scentless chamomile (Matricaria inodora), spring barley (Hordeum vulgare), sugar beet (Beta vulgaris), sunflower (Helianthus annuus), ivyleaf speedwell (Veronica hederaefolia), spring wheat (Triticum aestivum), winter wheat (Triticum aestivum), wild buckwheat (Polygonum convolvulus), wild mustard (Sinapis arvensis), wild oat (Avena fatua), windgrass (Apera spica-venti) and winter barley (Hordeum vulgare).
(§3) Treated plants and untreated controls were maintained in a greenhouse for approximately 21 to 28 days, after which all treated plants were compared to untreated controls and visually evaluated. […] A dash response (-) means no test result.

[3] = system: common pursiane; test: Test D common purslane; format: in vivo, Portulaca oleracea; conditions: Postemergence, 0 to 100 scale
[4] = system: blackgrass; test: Test E blackgrass; format: in vivo, Alopecurus myosuroides; conditions: Postemergence; for Plant response rating, Blackgrass: 0 to 100 scale
Protocol: as §1, §2, §3

[5] = system: kochia; test: Test E kochia; format: in vivo, Kochia scoparia; conditions: Preemergence
[6] = system: Italian ryegrass; test: Test E Italian ryegrass; format: in vivo, Lolium multiflorum; conditions: Postemergence; for Plant response rating, I. Ryegrass: 0 to 100 scale
Protocol: as §1, §2, §3

[7] = system: annual bluegrass; test: Test E annual bluegrass; format: in vivo, Poa annua; conditions: Postemergence; for Plant response rating, Annual bluegras: 0 to 100 scale
Protocol: as §1, §2, §3

[8] = system: common ragweed; test: Test D common ragweed; format: in vivo, Ambrosia elatior; conditions: Postemergence, 0 to 100 scale
[9] = system: spring wheat; test: Test E spring wheat; format: in vivo, Triticum aestivum; conditions: Preemergence
[10] = system: spring barley; test: Test E spring barley; format: in vivo, Hordeum vulgare; conditions: Postemergence; for Plant response rating, Spring Barley: 0 to 100 scale
Method in brief: (§4)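 For postemergence, plants at the 1- to 4-leaf stage, in a 60:40 mix of sandy loam and potting mix, treated with compound formulated in a surfactant-containing non-phytotoxic solvent. Visual assessment versus untreated controls followed roughly 21–28 days in the greenhouse.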

[11] = system: winter barley; test: Test E winter barley; format: in vivo, Hordeum vulgare; conditions: Postemergence; for Plant response rating, Barley (winter): 0 to 100 scale
Method in brief: as §4

[12] = system: Alexandergrass; test: Test D Alexandergrass; format: in vivo, Brachiaria plantaginea; conditions: Postemergence
[13] = system: annual bluegrass; test: Test E annual bluegrass; format: in vivo, Poa annua; conditions: Preemergence
[14] = system: redroot pigweed; test: Test E redroot pigweed; format: in vivo, Amaranthus retroflexus; conditions: Preemergence
[15] = system: wild buckwheat; test: Test E wild buckwheat; format: in vivo, Polygonum convolvulus; conditions: Postemergence; for Plant response rating, Wild buckwheat: 0 to 100 scale
Method in brief: as §4

[16] = system: large crabgrass; test: Test D large crabgrass; format: in vivo, Digitaria sanguinalis; conditions: Postemergence, 0 to 100 scale
[17] = system: itchgrass; test: Test D itchgrass; format: in vivo, Rottboellia exaltata; conditions: Postemergence, 0 to 100 scale
[18] = system: surinam grass; test: Test D surinam grass; format: in vivo, Brachiaria decumbens; conditions: Postemergence, 0 to 100 scale; for Surinam grass plant response rating: 0 no injury, 100 complete control
[19] = system: galium; test: Test E galium; format: in vivo, Galium aparine; conditions: Postemergence; for Plant response rating, Galium: 0 to 100 scale
Method in brief: as §4

[20] = system: purple nutsedge; test: Test D purple nutsedge; format: in vivo, Cyperus rotundus; conditions: Postemergence, 0 to 100 scale; for Purple nutsedge plant response rating: 0 no injury, 100 complete control
[21] = system: sunflower; test: Test E sunflower; format: in vivo, Helianthus annuus; conditions: Preemergence
[22] = system: spring barley; test: Test E spring barley; format: in vivo, Hordeum vulgare; conditions: Preemergence
[23] = system: black nightshade; test: Test E black nightshade; format: in vivo, Solanum nigra; conditions: Postemergence; for Plant response rating, Blk nightshade: 0 to 100 scale
Protocol: as §1, §2, §3

[24] = Rate 125 g/ha, 0 to 100 scale (0 no effect, 100 complete control)
[25] = Rate 500 g/ha, 0 to 100 scale where 0 is no effect and 100 is complete control
[26] = Rate 250 g/ha, 0 to 100 scale where 0 is no effect and 100 is complete control
[27] = Rate 500 g/ha, 0 no effect, 100 complete control
[28] = Rate 64 g/ha, 0 no injury, 100 complete control
[29] = Rate 125 g/ha, 0 no injury, 100 complete control
[30] = Rate 64 g/ha, 0 to 100 scale, 0 no injury, 100 complete control
[31] = Rate 125 g/ha, 0 to 100 scale, 0 no injury, 100 complete control
[32] = Rate 500 g/ha, 0 to 100 scale (0 no injury, 100 complete control)

## C=CCn1c(=O)on(C(=O)N(c2ccc(F)cc2)C(C)C)c1=O [Compound 146]
[1]; [24]
  Plant response rating, Wild mustard: 60
[1]; Rate 250 g/ha
  Wild mustard plant response rating (0 to 100 scale): 95
[1]; [25]
  Plant response rating, Wild mustard: 100
[2]; Rate 125 g/ha
  Plant response rating, Veronica hedera: 60
[2]; [26]
  Veronica hedera plant response rating: 40
[2]; [27]
  Plant response rating, Veronica hedera: 70
[3]; [28]
  Plant response rating, C. purslane: 0
[3]; [29]
  Plant response rating, C. purslane: 0
[3]; Rate 250 g/ha
  Plant response rating, C. purslane: 20
[3]; Rate 500 g/ha
  Plant response rating, C. purslane: 20
[4]; Rate 62 g/ha
  Plant response rating, Blackgrass: 70
[4]; Rate 125 g/ha
  Plant response rating, Blackgrass: 25
[4]; [27]
  Plant response rating, Blackgrass: 40
[4]; [26]
  Blackgrass plant response rating: 15
[5]; [24]
  Plant response rating, Kochia: 0
[5]; Rate 250 g/ha
  Kochia plant response rating (0 to 100 scale): 50
[5]; [25]
  Plant response rating, Kochia: 75
[6]; Rate 62 g/ha
  Plant response rating, I. Ryegrass: 50
[6]; Rate 125 g/ha
  Plant response rating, I. Ryegrass: 10
[6]; [27]
  Plant response rating, I. Ryegrass: 50
[6]; [26]
  I. Ryegrass plant response rating: 10
[7]; Rate 62 g/ha
  Plant response rating, Annual bluegras: 85
[7]; Rate 125 g/ha
  Plant response rating, Annual bluegras: 10
[7]; [27]
  Plant response rating, Annual bluegras: 65
[7]; [26]
  Annual bluegras plant response rating: 10
[8]; [28]
  Plant response rating, C. ragweed: 0
[8]; [29]
  Plant response rating, C. ragweed: 0
[8]; Rate 250 g/ha
  Plant response rating, C. ragweed: 30
[8]; Rate 500 g/ha
  Plant response rating, C. ragweed: 40
[9]; [24]
  Plant response rating, Spring Wheat: 50
[9]; Rate 250 g/ha
  Spring Wheat plant response rating (0 to 100 scale): 80
[9]; [25]
  Plant response rating, Spring Wheat: 100
[10]; Rate 62 g/ha
  Plant response rating, Spring Barley: 20
[10]; Rate 125 g/ha
  Plant response rating, Spring Barley: 10
[10]; [27]
  Plant response rating, Spring Barley: 20
[10]; [26]
  Spring Barley plant response rating: 10
[11]; Rate 62 g/ha
  Plant response rating, Barley (winter): 5
[11]; Rate 125 g/ha
  Plant response rating, Barley (winter): 10
[11]; [27]
  Plant response rating, Barley (winter): 20
[11]; [26]
  Barley (winter) plant response rating: 10
[12]; [30]
  Plant response rating, Alexandergrass: 10
[12]; [31]
  Plant response rating, Alexandergrass: 20
[12]; Rate 250 g/ha, 0 to 100 scale
  Plant response rating, Alexandergrass: 40
[12]; [32]
  Plant response rating, Alexandergrass: 65
[12]; Rate 500 g/ha, 0 to 100 scale
  Plant response rating, Alexandergrass: 65
[13]; [24]
  Plant response rating, Annual bluegras: 60
[13]; Rate 250 g/ha
  Annual bluegras plant response rating (0 to 100 scale): 80
[13]; [25]
  Plant response rating, Annual bluegras: 90
[14]; [24]
  Plant response rating, Redroot pigweed: 70
[14]; Rate 250 g/ha
  Redroot pigweed plant response rating (0 to 100 scale): 100
[14]; [25]
  Plant response rating, Redroot pigweed: 100
[15]; Rate 62 g/ha
  Plant response rating, Wild buckwheat: 20
[15]; Rate 125 g/ha
  Plant response rating, Wild buckwheat: 0
[15]; [27]
  Plant response rating, Wild buckwheat: 50
[15]; [26]
  Wild buckwheat plant response rating: 10
[16]; [28]
  Plant response rating Large crabgrass: 20
[16]; [29]
  Plant response rating Large crabgrass: 20
[16]; Rate 250 g/ha
  Plant response rating Large crabgrass: 50
[16]; Rate 500 g/ha
  Plant response rating Large crabgrass: 65
[17]; [28]
  Plant response rating, Itchgrass: 30
[17]; [29]
  Plant response rating, Itchgrass: 30
[17]; Rate 250 g/ha
  Plant response rating, Itchgrass: 50
[17]; Rate 500 g/ha
  Plant response rating, Itchgrass: 65
[18]; Rate 500 g/ha
  Plant response rating Surinam grass: 80
[19]; Rate 62 g/ha
  Plant response rating, Galium: 50
[19]; Rate 125 g/ha
  Plant response rating, Galium: 0
[19]; [27]
  Plant response rating, Galium: 60
[19]; [26]
  Galium plant response rating: 15
[20]; Rate 64 g/ha
  Purple nutsedge plant response rating: 0
[20]; Rate 125 g/ha
  Purple nutsedge plant response rating: 0
[20]; Rate 250 g/ha
  Plant response rating, Purple nutsedge: 0
[20]; Rate 500 g/ha
  Plant response rating, Purple nutsedge: 35
[21]; [24]
  Plant response rating, Sunflower: 20
[21]; Rate 250 g/ha
  Sunflower plant response rating (0 to 100 scale): 30
[21]; [25]
  Plant response rating, Sunflower: 30
[22]; [24]
  Plant response rating, Spring Barley: 20
[22]; Rate 250 g/ha
  Spring Barley plant response rating (0 to 100 scale): 10
[22]; [25]
  Plant response rating, Spring Barley: 90
[23]; Rate 62 g/ha
  Plant response rating, Blk nightshade: 50
[23]; Rate 125 g/ha
  Plant response rating, Blk nightshade: 50
[23]; [27]
  Plant response rating, Blk nightshade: 70
[23]; [26]
  Blk nightshade plant response rating: 40

## CC(C)N(C(=O)n1oc(=O)n(C2CC2)c1=O)c1ccc(F)cc1F [Compound 299]
[3]; [28]
  Plant response rating, C. purslane: 0
[3]; [29]
  Plant response rating, C. purslane: 0
[3]; Rate 250 g/ha
  Plant response rating, C. purslane: 0
[3]; Rate 500 g/ha
  Plant response rating, C. purslane: 0
[8]; [28]
  Plant response rating, C. ragweed: 100
[8]; [29]
  Plant response rating, C. ragweed: 50
[8]; Rate 250 g/ha
  Plant response rating, C. ragweed: 100
[8]; Rate 500 g/ha
  Plant response rating, C. ragweed: 100
[12]; [30]
  Plant response rating, Alexandergrass: 90
[12]; [31]
  Plant response rating, Alexandergrass: 100
[12]; Rate 250 g/ha, 0 to 100 scale
  Plant response rating, Alexandergrass: 100
[12]; [32]
  Plant response rating, Alexandergrass: 100
[12]; Rate 500 g/ha, 0 to 100 scale
  Plant response rating, Alexandergrass: 100
[16]; [28]
  Plant response rating Large crabgrass: 100
[16]; [29]
  Plant response rating Large crabgrass: 100
[16]; Rate 250 g/ha
  Plant response rating Large crabgrass: 100
[16]; Rate 500 g/ha
  Plant response rating Large crabgrass: 100
[17]; [28]
  Plant response rating, Itchgrass: 0
[17]; [29]
  Plant response rating, Itchgrass: 10
[17]; Rate 250 g/ha
  Plant response rating, Itchgrass: 50
[17]; Rate 500 g/ha
  Plant response rating, Itchgrass: 100
[18]; Rate 64 g/ha
  Surinam grass plant response rating: 50
[18]; Rate 125 g/ha
  Surinam grass plant response rating: 100
[18]; Rate 250 g/ha
  Plant response rating Surinam grass: 100
[18]; Rate 500 g/ha
  Plant response rating Surinam grass: 100
[20]; Rate 64 g/ha
  Purple nutsedge plant response rating: 0
[20]; Rate 125 g/ha
  Purple nutsedge plant response rating: 0
[20]; Rate 250 g/ha
  Plant response rating, Purple nutsedge: 0
[20]; Rate 500 g/ha
  Plant response rating, Purple nutsedge: 100
